Laboratory results: paper PMC6272504, “Inhibitory Effects of Neochamaejasmin B on P-Glycoprotein in MDCK-hMDR1 Cells and Molecular Docking of NCB Binding in P-Glycoprotein” (Molecules, 2015)

Target: T1, P-glycoprotein (Homo sapiens, UniProt P08183)
T1 construct: gene ABCB1
Assay: Rhodamine-123 accumulation kinetics (Lineweaver-Burk) and bidirectional transport in MDCK-hMDR1 cells
Type: cell-based

T1 sequence (P08183 whole entry): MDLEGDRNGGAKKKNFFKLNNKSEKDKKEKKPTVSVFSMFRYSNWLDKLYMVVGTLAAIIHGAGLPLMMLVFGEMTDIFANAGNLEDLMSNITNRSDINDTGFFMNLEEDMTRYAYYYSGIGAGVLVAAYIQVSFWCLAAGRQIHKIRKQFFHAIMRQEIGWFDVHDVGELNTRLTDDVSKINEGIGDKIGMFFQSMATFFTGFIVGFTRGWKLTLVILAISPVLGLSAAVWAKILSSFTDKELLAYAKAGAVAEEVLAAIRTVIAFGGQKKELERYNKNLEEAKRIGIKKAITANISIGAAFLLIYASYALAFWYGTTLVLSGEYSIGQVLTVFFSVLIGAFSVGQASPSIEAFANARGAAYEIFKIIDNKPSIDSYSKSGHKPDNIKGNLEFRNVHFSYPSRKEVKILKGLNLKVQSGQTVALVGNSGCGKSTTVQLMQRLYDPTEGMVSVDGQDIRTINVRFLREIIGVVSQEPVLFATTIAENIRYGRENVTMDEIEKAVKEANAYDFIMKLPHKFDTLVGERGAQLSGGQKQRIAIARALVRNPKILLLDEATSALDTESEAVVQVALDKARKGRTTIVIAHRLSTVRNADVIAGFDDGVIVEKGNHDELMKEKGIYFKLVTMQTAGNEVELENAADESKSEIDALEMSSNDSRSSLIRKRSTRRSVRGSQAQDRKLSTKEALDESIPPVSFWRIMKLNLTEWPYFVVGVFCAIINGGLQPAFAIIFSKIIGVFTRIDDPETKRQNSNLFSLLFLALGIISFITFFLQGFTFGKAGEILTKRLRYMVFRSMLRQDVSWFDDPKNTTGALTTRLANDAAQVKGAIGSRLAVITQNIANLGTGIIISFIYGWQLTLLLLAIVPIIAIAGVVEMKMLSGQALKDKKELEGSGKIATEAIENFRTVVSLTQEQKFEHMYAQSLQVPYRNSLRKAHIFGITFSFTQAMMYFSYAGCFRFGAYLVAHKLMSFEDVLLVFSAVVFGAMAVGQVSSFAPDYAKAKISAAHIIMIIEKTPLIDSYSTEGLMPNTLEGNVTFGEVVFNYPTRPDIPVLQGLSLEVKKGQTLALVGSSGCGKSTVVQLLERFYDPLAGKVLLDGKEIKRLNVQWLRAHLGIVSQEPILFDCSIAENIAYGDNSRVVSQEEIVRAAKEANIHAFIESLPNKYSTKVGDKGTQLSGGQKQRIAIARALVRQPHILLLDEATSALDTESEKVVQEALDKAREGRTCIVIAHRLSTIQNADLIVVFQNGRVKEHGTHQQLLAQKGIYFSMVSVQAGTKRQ

Work on `O=C1c2c(O)cc(O)cc2O[C@H](c2ccc(O)cc2)[C@@H]1[C@@H]1C(=O)c2c(O)cc(O)cc2O[C@H]1c1ccc(O)cc1` [NCB, Neochamaejasmin B] yielded a Ki of 45.2 µM.
